# In patent publication US10111874B2, “Combination therapies for treatment of cancer” (Araxes Pharma LLC, priority 2014, dated 2018):
# Target: T1, KRAS G12C 1-169, his-tagged protein, GDP-loaded (Homo sapiens, UniProt P01116, G12C)
# T1 construct: KRAS G12C 1-169, his-tagged protein, GDP-loaded
# Assay: Biochemical assay: covalent binding to KRAS G12C analyzed by mass spectrometry; further: test concentration or dose not given here
# Settings: compounds 1-47, measured at 24 h
# T1 sequence (P01116 1-169 isoform P01116-2 G12C): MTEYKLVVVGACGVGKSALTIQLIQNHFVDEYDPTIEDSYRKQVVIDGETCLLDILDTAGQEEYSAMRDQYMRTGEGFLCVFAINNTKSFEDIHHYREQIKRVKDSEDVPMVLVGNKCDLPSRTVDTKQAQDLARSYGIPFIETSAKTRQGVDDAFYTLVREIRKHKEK
row,Compound,Binding %
1,"C=CC(=O)N1CCC(c2ncnc3cc(Cl)c(-c4ccccc4Cl)cc23)CC1 [Compound I-36, 1-(4-(7-chloro-6-(2-chlorophenyl)quinazolin-4-yl)piperidin-1-yl)prop-2-en-1-one]",+ (+indicates binding activity from 5% to 25%)
2,"C=CC(=O)N1CCN(c2ncnc3cc(Cl)c(-c4cc(F)ccc4Cl)cc23)CC1 [Compound I-23, 1-(4-(7-chloro-6-(2-chloro-5-fluorophenyl)quinazolin-4-yl)piperazin-1-yl)prop-2-en-1-one]",++ (++indicates binding activity greater than 25% and up to 50%)
3,"C=CC(=O)N1CCN(c2ncnc3cc(Cl)c(-c4ccccc4C#N)cc23)CC1 [Compound I-8, 2-(4-(4-acryloylpiperazin-1-yl)-7-chloroquinoazlin-6-yl)benzonitrile]",++ (++indicates binding activity greater than 25% and up to 50%)
4,"C=CS(=O)(=O)N1CCN(c2ncnc3cc(Cl)c(-c4ccc(Cl)cc4)cc23)CC1 [Compound I-45, 7-chloro-6-(4-chlorophenyl)-4-(4-(vinylsulfonyl)piperazin-1-yl)quinazoline]",+ (+indicates binding activity from 5% to 25%)
5,"C=CC(=O)N1CCN(c2ncnc3cc(Cl)c(-c4ccc(C)s4)cc23)CC1 [Compound I-26, 1-(4-(7-chloro-6-(5-methylthiophen-2-yl)quinazolin-4-yl)piperazin-1-yl)prop-2-en-1-one]",++ (++indicates binding activity greater than 25% and up to 50%)

# Same assay, conditions: compounds 48-246, measured at 2 h
row,Compound,Binding %
1,"C=CC(=O)N1CCN(c2ncnc3cc(-c4ccccc4C(F)(F)F)c(Cl)cc23)CC1 [Compound I-100, 1-(4-(6-chloro-7-(2-(trifluoromethyl)phenyl)quinazolin-4-yl)piperazin-1-yl)prop-2-en-1-one]",+++ (+++indicates binding activity greater than 50% and up to 75%)
2,"C=CC(=O)N1CCN(c2ncnc3cc(-c4ccc(Cl)cc4)c(Cl)cc23)CC1CC#N (stereo not shown) [Compound I-111, 2-(1-acryloyl-4-(6-chloro-7-(4-chlorophenyl)quinazolin-4-yl)piperazin-2-yl)acetonitrile]",+++ (+++indicates binding activity greater than 50% and up to 75%)
3,"C=CC(=O)N1CCN(c2ncnc3c(F)c(-c4c(C)ccc5[nH]ncc45)c(Cl)cc23)CC1 [Compound I-234, 1-(4-(6-chloro-8-fluoro-7-(5-methyl-1H-indazol-4-yl)quinazolin-4-yl)piperazin-1-yl)prop-2-en-1-one]",++++ (++++indicates binding activity greater than 75%)
4,"C=CC(=O)N1CCN(C2=c3cc(Cl)c(-c4ccccc4F)cc3=NCN2C(N)=O)CC1 [Compound I-189, 4-(4-acryloylpiperazin-1-yl)-6-chloro-7-(2-fluorophenyl)quinazolin-3-carboxamide]",++ (++indicates binding activity greater than 25% and up to 50%)
5,"C=CC(=O)N1CCN(c2ncnc3cc(-c4ccccc4F)c(Cl)cc23)CC1C(N)=O (stereo not shown) [Compound I-120, 1-acryloyl-4-(6-chloro-7-(2-fluorophenyl)quinazolin-4-yl)piperazine-2-carboxamide]",+++ (+++indicates binding activity greater than 50% and up to 75%)
6,"C=CC(=O)N1CCN(c2ncnc3cc(-c4cccc(C(=O)NC5CC5)c4)c(Cl)cc23)CC1 [Compound I-142, 3-(4-(4-acryloylpiperazin-1-yl)-6-chloroquinazolin-7-yl)-N-cyclopropylbenzamide]",+ (+indicates binding activity from 5% to 25%)
7,"C=CC(=O)N1CCN(c2ncnc3cc(-c4ccccc4C(F)(F)F)c(Cl)cc23)CC1CC#N (stereo not shown) [Compound I-125, 2-(1-acryloyl-4-(6-chloro-7-(2-(trifluoromethyl)phenyl)quinazolin-4-yl)piperazin-2-yl)acetonitrile]",++++ (++++indicates binding activity greater than 75%)
8,"C=CC(=O)N1CCN(c2ncnc3cc(-c4ccccc4)c(Cl)cc23)CC1 [Compound I-67, 1-(4-(6-chloro-7-phenylquinazolin-4-yl)piperazin-1-yl)prop-2-en-1-one]",+++ (+++indicates binding activity greater than 50% and up to 75%)
9,"C=CC(=O)N1CCN(c2ncnc3cc(Cl)c(-c4ccc(Cl)cc4)cc23)C[C@H]1CO [Compound I-63, (S)-1-(4-(7-chloro-6-(4-chlorophenyl)quinazolin-4-yl)-2-(hydroxymethyl)piperazin-1-yl)prop-2-en-1-one]",+ (+indicates binding activity from 5% to 25%)
10,"C=CC(=O)N1CCN(c2ncnc3cc(-c4cc(NC)ccc4C)c(Cl)cc23)CC1 [Compound I-191, 1-(4-(6-chloro-7-(2-methyl-5-(methylamino)phenyl)quinazolin-4-yl)piperazin-1-yl)prop-2-en-1-one]",+++ (+++indicates binding activity greater than 50% and up to 75%)

# Same assay, conditions: compounds 247-342, measured at 30 min
row,Compound,Binding %
1,"C=CC(=O)N1CCN(c2nc(OC3CCCOC3)nc3cc(-c4c(C)ccc5[nH]ncc45)c(Cl)cc23)CC1 (stereo not shown) [Compound 316, 1-(4-(6-chloro-7-(5-methyl-1H-indazol-4-yl)-2-(tetrahydro-2H-pyran-3-yloxy)quinazolin-4-yl)piperazin-1-yl)prop-2-en-1-one]",++ (++indicates binding activity greater than 25% and up to 50%)
2,"C=CC(=O)N1CCN(c2ncnc3c(F)c(-c4c(C)ccc5[nH]ncc45)c(Cl)cc23)CC1C (stereo not shown) [Compound 327, 1-(4-(6-chloro-8-fluoro-7-(5-methyl-1H-indazol-4-yl)quinazolin-4-yl)-2-methylpiperazin-1-yl)prop-2-en-1-one]",++ (++indicates binding activity greater than 25% and up to 50%)
3,"CN(C)C/C=C/C(=O)N1CCN(c2c(C#N)cnc3c(F)c(-c4cc(O)cc5ccccc45)c(Cl)cc23)CC1 [Compound 310, (E)-6-chloro-4-(4-(4-(dimethylamino)but-2-enoyl)piperazin-1-yl)-8-fluoro-7-(3-hydroxynaphthalen-1-yl)quinoline-3-carbonitrile]",++++ (++++indicates binding activity greater than 75%)
4,"C=CC(=O)N1CCN(c2nc(Nc3cnn(C)c3)nc3c(F)c(-c4c(C)ccc5[nH]ncc45)c(Cl)cc23)CC1 [Compound 322, 1-(4-(6-chloro-8-fluoro-7-(5-methyl-1H-indazol-4-yl)-2-(1-methyl-1H-pyrazol-4-ylamino)quinazolin-4-yl)piperazin-1-yl)prop-2-en-1-one]",+++ (+++indicates binding activity greater than 50% and up to 75%)
5,"C=CC(=O)N1CCN(c2ncnc3cc(-c4cc(OC)cc5ccccc45)c(Cl)cc23)CC1 [Compound I-249, 1-(4-(6-chloro-7-(3-methoxynaphthalen-1-yl)quinazolin-4-yl)piperazin-1-yl)prop-2-en-1-one]",+ (+indicates binding activity from 5% to 25%)
6,"C=CC(=O)N1CCN(c2cnnc3cc(-c4c(O)ccc5ccccc45)c(Cl)cc23)CC1 [Compound I-258, 1-(4-(6-chloro-7-(2-hydroxynaphthalen-1-yl)cinnolin-4-yl)piperazin-1-yl)prop-2-en-1-one]",++ (++indicates binding activity greater than 25% and up to 50%)
7,"C=CC(=O)N1CCN(c2ncnc3c(OC)c(-c4c(O)cccc4F)c(Cl)cc23)CC1 [Compound 313, 1-(4-(6-chloro-7-(2-fluoro-6-hydroxyphenyl)-8-methoxyquinazolin-4-yl)piperazin-1-yl)prop-2-en-1-one]",+++ (+++indicates binding activity greater than 50% and up to 75%)
8,"C/C=C/C(=O)N1CCN(c2ncnc3c(F)c(-c4cc(O)cc5ccccc45)c(Cl)cc23)CC1C (stereo not shown) [Compound 328, (E)-1-(4-(6-chloro-8-fluoro-7-(3-hydroxynaphthalen-1-yl)quinazolin-4-yl)-2-methylpiperazin-1-yl)but-2-en-1-one]",+ (+indicates binding activity from 5% to 25%)

# Same assay, conditions: determined at 2 hrs
row,Compound,Binding %
1,"C=CC(=O)N1CC(N2CCN(C(=O)Cc3c[nH]c4cc(Cl)c(Cl)cc34)CC2)C1 [II-61, 1-(3-(4-(2-(5,6-Dichloro-1H-indol-3-yl)acetyl)piperazin-1-yl)azetidin-1-yl)prop-2-en-1-one]",+ (+indicates binding activity from 5% to 20%)
2,"C=CC(=O)N1CC(N2CCN(C(=O)CNc3cc(C4CC4(F)F)c(Cl)cc3O)CC2)C1 (stereo not shown) [II-56, 1-(3-(4-((4-chloro-5-(2,2-difluorocyclopropyl)-2-hydroxyphenyl)glycyl)piperazin-1-yl)azetidin-1-yl)prop-2-en-1-one]",++ (++indicates binding activity greater than 20%)
3,"C=CC(=O)N1CC(N2CCN(C(=O)[C@@H](C)Nc3cc(CC)c(Cl)cc3O)CC2)C1 [II-70, (R)-1-(3-(4-(2-(4-chloro-5-ethyl-2-hydroxyphenylamino)-propanoyl)piperazin-1-yl)azetidin-1-yl)prop-2-en-1-one]",++ (++indicates binding activity greater than 20%)

# Same assay, conditions: determined at 24 hrs
row,Compound,Binding %
1,"C=CC(=O)N1CC(N2CCN(C(=O)CNc3cc(Cl)c(Cl)cc3Cl)CC2)C1 [II-22, 1-(3-(4-(2-(2,4,5-trichlorophenyl-amino)acetyl)-piperazin-1-yl)azetidin-1-yl)prop-2-en-1-one]",+ (+indicates binding activity from 5% to 15%)
2,"C=CC(=O)N1CC(N2CCN(C(=O)CNc3cc(O)c(Cl)cc3Cl)CC2)C1 [II-23, 1-(3-(4-(2-(2,4-dichloro-5-hydroxyphenyl-amino)acetyl)piperazin-1-yl)azetidin-1-yl)prop-2-en-1-one]",+ (+indicates binding activity from 5% to 15%)
3,"C=CC(=O)N1CC(N2CCN(C(=O)CNc3cc(C=O)c(Cl)cc3OC)CC2)C1 [II-46, 5-(2-(4-(1-acryloylazetidin-3-yl)piperazin-1-yl)-2-oxoethylamino)-2-chloro-4-methoxybenzaldehyde]",+ (+indicates binding activity from 5% to 15%)
4,"C=CC(=O)N1CC(N2CCN(C(=O)CNc3cc(OC)c(Cl)cc3Cl)CC2)C1 [II-5, 1-(3-(4-(2-(2,4-dichloro-5-methoxyphenyl-amino)acetyl)-piperazin-1-yl)azetidin-1-yl)prop-2-en-1-one]",+ (+indicates binding activity from 5% to 15%)
5,"C=CC(=O)N1CC(N2CCN(C(=O)Cn3ccc4ccccc43)CC2)C1 [II-29, 1-(3-(4-(2-(1H-indol-1-yl)acetyl)piperazin-1-yl)azetidin-1-yl)prop-2-en-1-one]",+ (+indicates binding activity from 5% to 15%)
